Results reported in ChEMBL document CHEMBL5291721, “A preclinical secondary pharmacology resource illuminates target-adverse drug reaction associations of marketed drugs” (Nat Commun, 2023).
One block for each compound: values may come before it.

Legend:
Estrogen receptor = target: T1, Estrogen receptor (Homo sapiens, UniProt P03372)
T1 sequence (P03372 whole entry): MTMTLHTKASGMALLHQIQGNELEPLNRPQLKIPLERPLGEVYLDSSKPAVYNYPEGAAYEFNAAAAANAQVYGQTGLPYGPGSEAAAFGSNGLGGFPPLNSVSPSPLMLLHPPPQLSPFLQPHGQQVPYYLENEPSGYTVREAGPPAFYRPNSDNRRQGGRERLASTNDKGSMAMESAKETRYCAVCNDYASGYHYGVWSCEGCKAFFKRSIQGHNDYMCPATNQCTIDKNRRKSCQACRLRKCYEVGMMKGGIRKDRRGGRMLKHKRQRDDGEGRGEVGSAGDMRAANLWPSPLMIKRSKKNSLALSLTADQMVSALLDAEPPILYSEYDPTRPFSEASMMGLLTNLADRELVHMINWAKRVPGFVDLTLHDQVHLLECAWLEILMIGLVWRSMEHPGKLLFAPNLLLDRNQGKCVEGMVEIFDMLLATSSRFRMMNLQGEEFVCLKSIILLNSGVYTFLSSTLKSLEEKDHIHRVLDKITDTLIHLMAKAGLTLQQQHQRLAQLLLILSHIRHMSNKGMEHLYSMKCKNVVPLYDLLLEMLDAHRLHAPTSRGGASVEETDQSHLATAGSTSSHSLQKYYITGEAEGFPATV

Mu-type opioid receptor = Mu-type opioid receptor (Homo sapiens, UniProt P35372)
[1] = target: Gamma-aminobutyric acid receptor subunit alpha-1 (Rattus norvegicus, UniProt P62813)
[2] = target: T2, Alpha-1A adrenergic receptor (Homo sapiens, UniProt P35348)
T2 sequence (P35348 whole entry): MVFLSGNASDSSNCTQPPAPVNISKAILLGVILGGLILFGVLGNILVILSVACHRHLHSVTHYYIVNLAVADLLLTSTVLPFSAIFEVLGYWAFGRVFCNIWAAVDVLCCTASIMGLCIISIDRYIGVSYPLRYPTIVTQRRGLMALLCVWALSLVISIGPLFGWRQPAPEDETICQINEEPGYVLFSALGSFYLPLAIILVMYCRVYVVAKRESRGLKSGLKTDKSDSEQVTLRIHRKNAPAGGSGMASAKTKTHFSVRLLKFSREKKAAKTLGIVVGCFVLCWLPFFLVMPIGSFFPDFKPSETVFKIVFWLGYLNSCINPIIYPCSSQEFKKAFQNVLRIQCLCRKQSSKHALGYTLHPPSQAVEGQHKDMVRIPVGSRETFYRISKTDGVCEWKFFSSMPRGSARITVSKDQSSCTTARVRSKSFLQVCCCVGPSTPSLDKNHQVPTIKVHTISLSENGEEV

[3] = target: T3, Type-1 angiotensin II receptor (Homo sapiens, UniProt P30556)
T3 sequence (P30556 whole entry): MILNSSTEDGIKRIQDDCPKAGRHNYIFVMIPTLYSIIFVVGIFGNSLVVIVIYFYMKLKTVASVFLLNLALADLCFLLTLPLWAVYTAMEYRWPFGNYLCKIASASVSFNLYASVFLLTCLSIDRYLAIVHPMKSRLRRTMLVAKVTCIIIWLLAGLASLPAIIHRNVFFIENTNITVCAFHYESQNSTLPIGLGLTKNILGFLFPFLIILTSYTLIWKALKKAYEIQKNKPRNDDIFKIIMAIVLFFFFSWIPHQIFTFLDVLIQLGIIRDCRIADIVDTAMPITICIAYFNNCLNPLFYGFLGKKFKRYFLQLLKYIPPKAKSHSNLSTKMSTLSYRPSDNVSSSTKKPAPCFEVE

D(1A) dopamine receptor = D(1A) dopamine receptor (Homo sapiens, UniProt P21728); format: functional, cell-based
Motilin receptor = Motilin receptor (Homo sapiens, UniProt O43193)
[4] = target: Kappa-type opioid receptor (Homo sapiens, UniProt P41145)
Progesterone receptor = target: T4, Progesterone receptor (Homo sapiens, UniProt P06401); format: functional
T4 sequence (P06401 whole entry): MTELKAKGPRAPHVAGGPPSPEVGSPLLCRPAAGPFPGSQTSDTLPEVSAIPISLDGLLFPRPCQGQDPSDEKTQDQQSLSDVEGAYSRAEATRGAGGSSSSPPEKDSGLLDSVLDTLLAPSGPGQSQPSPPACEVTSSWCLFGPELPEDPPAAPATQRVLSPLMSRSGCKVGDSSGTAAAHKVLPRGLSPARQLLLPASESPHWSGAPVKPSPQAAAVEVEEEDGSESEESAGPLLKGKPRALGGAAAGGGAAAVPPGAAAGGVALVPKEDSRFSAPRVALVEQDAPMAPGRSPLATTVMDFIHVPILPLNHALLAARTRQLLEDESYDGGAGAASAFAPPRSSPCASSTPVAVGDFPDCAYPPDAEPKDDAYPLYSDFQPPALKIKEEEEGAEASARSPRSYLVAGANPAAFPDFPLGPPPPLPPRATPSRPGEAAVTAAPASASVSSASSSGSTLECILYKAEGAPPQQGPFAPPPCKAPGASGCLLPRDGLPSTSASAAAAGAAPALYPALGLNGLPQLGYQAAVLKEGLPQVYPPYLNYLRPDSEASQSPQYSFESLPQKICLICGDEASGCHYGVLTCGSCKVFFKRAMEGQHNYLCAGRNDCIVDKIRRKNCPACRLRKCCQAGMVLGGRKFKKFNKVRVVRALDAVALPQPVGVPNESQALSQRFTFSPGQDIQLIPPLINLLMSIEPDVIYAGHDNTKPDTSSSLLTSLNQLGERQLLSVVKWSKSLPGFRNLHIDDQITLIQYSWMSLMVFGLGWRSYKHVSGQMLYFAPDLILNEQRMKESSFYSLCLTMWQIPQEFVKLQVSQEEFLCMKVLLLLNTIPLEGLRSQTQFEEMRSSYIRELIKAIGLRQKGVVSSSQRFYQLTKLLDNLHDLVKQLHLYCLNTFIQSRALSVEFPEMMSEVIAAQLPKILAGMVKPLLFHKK
Note: assay procedure not described here.

Chain of Mu-type opioid receptor (P35372 whole entry): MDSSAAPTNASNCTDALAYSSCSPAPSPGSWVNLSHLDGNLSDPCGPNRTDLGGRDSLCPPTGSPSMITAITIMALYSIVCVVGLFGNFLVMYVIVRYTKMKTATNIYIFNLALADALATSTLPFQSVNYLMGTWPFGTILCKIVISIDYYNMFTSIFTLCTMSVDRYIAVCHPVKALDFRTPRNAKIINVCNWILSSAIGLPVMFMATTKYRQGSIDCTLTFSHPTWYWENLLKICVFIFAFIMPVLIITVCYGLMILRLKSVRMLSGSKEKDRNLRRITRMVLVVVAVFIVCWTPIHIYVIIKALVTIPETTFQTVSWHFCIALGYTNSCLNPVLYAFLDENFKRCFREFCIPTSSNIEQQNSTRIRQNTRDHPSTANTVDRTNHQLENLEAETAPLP
Chain of Gamma-aminobutyric acid receptor subunit alpha-1 (P62813 whole entry): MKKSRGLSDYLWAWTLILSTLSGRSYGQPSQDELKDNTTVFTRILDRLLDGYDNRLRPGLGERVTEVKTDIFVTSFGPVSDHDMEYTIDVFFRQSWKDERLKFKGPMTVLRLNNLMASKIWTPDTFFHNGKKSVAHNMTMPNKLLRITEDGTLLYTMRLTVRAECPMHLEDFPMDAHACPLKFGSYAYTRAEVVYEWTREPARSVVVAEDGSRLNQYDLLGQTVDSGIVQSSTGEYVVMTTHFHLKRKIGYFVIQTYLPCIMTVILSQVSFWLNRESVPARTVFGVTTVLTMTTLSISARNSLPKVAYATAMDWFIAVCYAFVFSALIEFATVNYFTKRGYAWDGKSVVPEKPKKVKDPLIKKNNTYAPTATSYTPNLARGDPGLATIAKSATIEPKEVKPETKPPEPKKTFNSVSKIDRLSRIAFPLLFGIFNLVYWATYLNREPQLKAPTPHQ
Chain of Motilin receptor (O43193 whole entry): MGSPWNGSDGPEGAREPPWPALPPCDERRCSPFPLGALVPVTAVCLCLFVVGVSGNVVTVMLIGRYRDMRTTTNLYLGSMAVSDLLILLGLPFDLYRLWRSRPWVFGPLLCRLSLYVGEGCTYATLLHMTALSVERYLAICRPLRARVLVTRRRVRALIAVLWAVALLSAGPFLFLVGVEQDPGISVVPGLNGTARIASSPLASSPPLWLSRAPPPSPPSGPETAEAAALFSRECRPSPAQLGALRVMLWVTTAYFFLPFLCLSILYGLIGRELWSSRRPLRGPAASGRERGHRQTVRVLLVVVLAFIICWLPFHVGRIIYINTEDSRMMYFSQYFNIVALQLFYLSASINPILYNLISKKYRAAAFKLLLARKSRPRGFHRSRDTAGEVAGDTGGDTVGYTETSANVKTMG
Chain of Kappa-type opioid receptor (P41145 whole entry): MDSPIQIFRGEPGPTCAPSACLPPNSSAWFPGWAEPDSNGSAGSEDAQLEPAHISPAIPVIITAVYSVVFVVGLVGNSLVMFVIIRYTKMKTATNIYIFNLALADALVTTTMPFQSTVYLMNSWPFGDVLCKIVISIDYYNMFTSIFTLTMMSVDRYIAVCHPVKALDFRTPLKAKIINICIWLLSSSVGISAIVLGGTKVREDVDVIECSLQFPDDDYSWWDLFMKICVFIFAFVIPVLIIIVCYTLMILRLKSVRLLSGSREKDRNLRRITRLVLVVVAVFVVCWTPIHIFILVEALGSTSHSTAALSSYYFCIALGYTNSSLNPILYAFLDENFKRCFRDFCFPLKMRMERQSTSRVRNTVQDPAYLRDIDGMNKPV
Chain of D(1A) dopamine receptor (P21728 whole entry): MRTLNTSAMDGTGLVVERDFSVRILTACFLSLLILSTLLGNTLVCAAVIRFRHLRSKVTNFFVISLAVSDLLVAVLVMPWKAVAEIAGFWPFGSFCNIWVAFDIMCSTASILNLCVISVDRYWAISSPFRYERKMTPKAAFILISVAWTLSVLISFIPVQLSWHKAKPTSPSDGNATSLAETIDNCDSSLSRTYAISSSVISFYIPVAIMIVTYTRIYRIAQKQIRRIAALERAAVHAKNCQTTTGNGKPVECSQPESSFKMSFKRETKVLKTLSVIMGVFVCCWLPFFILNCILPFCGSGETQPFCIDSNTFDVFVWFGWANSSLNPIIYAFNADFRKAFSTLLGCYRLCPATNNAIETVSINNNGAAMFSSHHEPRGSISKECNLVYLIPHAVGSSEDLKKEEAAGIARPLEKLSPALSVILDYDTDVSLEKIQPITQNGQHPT

Compound: CN(C)c1ccc(C(=C2C=CC(=[N+](C)C)C=C2)c2ccc(N(C)C)cc2)cc1 [GENTIAN VIOLET]
AC50 (Estrogen receptor): > 30 µM
AC50 (Mu-type opioid receptor): 3.9 µM

Compound: Nc1ccc(S(N)(=O)=O)cc1 [SULFANILAMIDE]
AC50 [1]: > 30 µM

AC50 [2]: > 30 µM
AC50 [3]: > 30 µM
AC50 (D(1A) dopamine receptor): > 30 µM
AC50 (Motilin receptor): > 30 µM
AC50 [4]: > 30 µM
AC50 (Progesterone receptor): > 30 µM
Compound: HYDROXOCOBALAMIN
